Target: T1, Glycogen [starch] synthase, muscle (Homo sapiens, UniProt P13807)
T1 sequence (P13807 whole entry): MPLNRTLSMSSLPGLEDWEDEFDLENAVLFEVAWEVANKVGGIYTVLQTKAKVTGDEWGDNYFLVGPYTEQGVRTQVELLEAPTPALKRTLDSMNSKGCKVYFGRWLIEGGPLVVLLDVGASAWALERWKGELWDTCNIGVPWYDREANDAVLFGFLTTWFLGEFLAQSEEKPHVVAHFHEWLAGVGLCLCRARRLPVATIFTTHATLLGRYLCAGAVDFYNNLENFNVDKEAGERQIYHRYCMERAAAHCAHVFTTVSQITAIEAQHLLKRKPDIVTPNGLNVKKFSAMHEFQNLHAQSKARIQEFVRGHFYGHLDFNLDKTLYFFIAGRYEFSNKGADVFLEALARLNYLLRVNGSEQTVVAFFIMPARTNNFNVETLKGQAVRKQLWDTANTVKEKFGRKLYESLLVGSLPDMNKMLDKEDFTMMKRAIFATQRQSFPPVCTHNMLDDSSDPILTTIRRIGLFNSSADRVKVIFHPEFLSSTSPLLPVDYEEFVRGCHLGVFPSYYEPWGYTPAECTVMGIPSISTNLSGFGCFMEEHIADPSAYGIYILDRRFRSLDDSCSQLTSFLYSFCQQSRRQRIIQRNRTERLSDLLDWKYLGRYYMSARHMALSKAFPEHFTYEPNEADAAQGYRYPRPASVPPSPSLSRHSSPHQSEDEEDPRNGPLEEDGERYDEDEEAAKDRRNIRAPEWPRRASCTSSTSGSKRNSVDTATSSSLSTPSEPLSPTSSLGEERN
Test: Glycogen Synthase Activity Assay: To a polystyrene 96-well plate, a solution containing 30 mM glycylglycine (pH 7.3), 40 mM KCl, 20 mM MgCl2, 9.2% DMSO containing one of the test compounds at various concentrations, and 10 mM glucose-6-phosphate (Sigma-Aldrich Corporation, G7879) was added by 12 uL/well. Next, a substrate solution containing 30 mM glycylglycine (pH 7.3), 4.3 mg/mL of glycogen (Sigma-Aldrich Corporation, G8876), 21.6 mM UDP-glucose (Sigma-Aldrich Corporation, U4625), 21.6 mM phosphoenolpyruvic acid (Sigma-Aldrich Corporation, P0564), and 4.05 mM NADH (Sigma-Aldrich Corporation, N8129) was added by 18 uL/well. Further, an enzyme solution containing 50 mM Tris-HCl (pH 8.0), 27 mM DTT (Nacalai Tesque, Inc., 14128-04), 0.2 mg/mL of bovine serum albumin, 0.17 mg/mL of the glycogen synthase, 1.5 uL of a pyruvate kinase/lactate dehydrogenase solution (Sigma-Aldrich Corporation, P0294) was added by 18 uL/well to prepare a reaction solution. After the reaction solution was incubated (at 30° C. for 25 minutes for Examples 1 to 10, at 37° C. for 20 minutes for Examples 11 to 75), the absorbance at 340 nm was measured using Benchmark Plus (Bio-Rad Laboratories, Inc.).

## O=C(O)[C@@H]1CCCN1C(=O)c1cccc(COc2ccc(-c3cc(F)c(F)c4c3OCC=C4)cc2)c1
  EC50: 100 nM

## O=C(O)[C@@H]1CCCN1C(=O)c1cccc(COc2ccc(-c3cc(F)cc4c3OCC=C4)cc2)c1
  EC50: 780 nM
